The values that follow come from patent US8247394B2 (Cempra Pharmaceuticals Inc., priority 2010, dated 2012).

In brackets after ≈: the same amount, converted by molar mass. Like-named read-outs stand apart in the source and are kept apart here.

Series [1] deals with N. gonorrhoeae. Nature of the series: Reference agar dilution susceptibility testing (CLSI M07-A8) of N. gonorrhoeae clinical isolates. The settings on record: for % by category, R (resistant); resistance rate / % by category, S (susceptible): CLSI criteria, 35 strains. The format is cell-based, Neisseria gonorrhoeae. The method, then: Thirty-five clinical isolates of N. gonorrhoeae collected in the United States (USA), Asia and European medical centers since 2005 were tested using reference agar dilution methods per Clinical and Laboratory Standards Institute (CLSI) M07-A8 (Clinical and Laboratory Standards Institute. 2009. M07-A8, Methods for dilution antimicrobial susceptibility tests for bacteria that grow aerobically; approved standard—eighth edition. Wayne, Pa.: CLSI) and M100-S20 documents (Clinical and Laboratory Standards Institute. 2010. M100-S20, Performance standards for antimicrobial susceptibility testing, 20th informational supplement. Wayne, Pa.: CLSI). […] Quality control (QC) ranges and interpretive criteria for comparator compounds were as published by CLSI (Clinical and Laboratory Standards Institute. 2010. M100-S20, Performance standards for antimicrobial susceptibility testing, 20th informational supplement. Wayne, Pa.: CLSI).
(In agar dilution the substance is mixed into plates at graded concentrations.)

Series [2] has as its system C. trachomatis. Nature of the series: In vitro susceptibility testing of C. trachomatis in cell culture using HEp-2 cells (MIC/MBC). The format is cell-based, Chlamydia trachomatis. The settings on record: for MBC / MIC90 / MIC: Chlamydia trachomatis. The method, then: Chlamydia isolates: 10 isolates of C. trachomatis in order to determine the MIC90 and MBC90 for each antibiotic.
C. trachomatis: 10 isolates of C. trachomatis, including standard isolates from the ATCC (E-BOUR, F-IC-CAL3, C-HAR32, J-UW-36, L2434, D-UW-57kx, B-HAR-36) and recent clinical isolates N18 (cervical), N19 (cervical), 7015 (infant eye).
In vitro susceptibility testing: Susceptibility testing of C. trachomatis was performed in cell culture using HEp-2 cells grown in 96-well microtiter plates. Each well was inoculated with 0.1 ml of the test strain diluted to yield 10^3 to 10^4 IFU/per ml, centrifuged at 1,700×g for 1 hr and incubated at 35° C. for 1 hr. Wells were then aspirated and overlaid with 0.2 ml of medium containing 1 μg of cycloheximide per ml and serial two fold dilutions of the test drug. Duplicate plates were inoculated. After incubation at 35° C. for 48-72 hrs, cultures were fixed and stained for inclusions with fluorescein-conjugated antibody to the lipopolysaccharide genus antigen ([…]™, Kallestad Diagnostics, Chaska, Minn.). The minimal inhibitory concentration (MIC) was the lowest antibiotic concentration at which no inclusions are seen. The minimal bactericidal concentration (MBC) was determined by aspirating the antibiotic containing medium, washing wells twice with phosphate buffered saline and adding antibiotic-free medium. Cultures were frozen at −70° C., thawed, passed onto new cells, incubated for 72 hrs then fixed and stained as above. The MBC was the lowest antibiotic concentration that results in no inclusions after passage. All tests were run in triplicate.
Ten isolates of C. trachomatis including standard isolates from the ATCC (E-BOUR, F-IC-CAL3, C-HAR32, J-UW-36, L2434, D-UW-57kx, B-HAR-36) and recent clinical isolates N18 (cervical), N19 (cervical), 7015 (infant eye) were selected for study. Susceptibility testing was performed in cell culture using HEp-2 cells (Roblin et. al. Antimicrob. Agents Chemother. 42:194-196 (1998)) at State University of New York, Downstate Medical Center (Brooklyn, N.Y., USA).

The conditions of series [3]: blood; cited from earlier work.
[4] abbreviates: Neisseria gonorrhoeae, 35 N. gonorrhoeae strains, read-out: MIC50.
[5] abbreviates: 10 strains of C. trachomatis, read-out: MBC90.
Setting [6] is: number of isolates among 35 strains.

In the case of `CC(=O)O[C@H]1C[C@@]2(C)[C@@H](C[C@@H](O)[C@H]3[C@@]4(C)CC[C@@H](O)[C@@H](C)[C@@H]4CC[C@@]32C)/C1=C(\CCC=C(C)C)C(=O)O` [Fusidic acid], in series [1], the “Occurrences at MIC 0.25 μg/ml” value stood at 12, the “Occurrences at MIC 0.5 μg/ml” value is 17, the “Occurrences at MIC 1 μg/ml” value is on record as 5 and the “Occurrences at MIC 2 μg/ml” value turned out to be 1. This compound also displayed an MIC90 in series [1] (Neisseria gonorrhoeae, 35 N. gonorrhoeae strains) of 1 µg/mL (≈ 1.94 µM). Also, the MIC50 in series [1] (setting [4]) worked out at 0.5 µg/mL (≈ 0.968 µM). Moreover, in series [1] (all N. gonorrhoeae strains tested), the “Concentration at which active against all strains tested” value was no more than 2 µg/mL. In addition, in series [2] (10 strains), the “MBC Range” value lay within 0.12 to 0.5 µg/mL, the “MIC 90%” value came to 0.5 µg/mL (≈ 0.968 µM), the “MIC Range” value was 0.12 to 0.5 µg/mL and the MIC range lay within 0.12 to 0.5 µg/mL. The MBC in series [2] (10 strains, read-out: MBC 90%) was 0.5 µg/mL (≈ 0.968 µM). Also, the MIC90 in series [2] (10 strains of C. trachomatis) came to 0.5 µg/mL (≈ 0.968 µM). In series [2] (setting [5]), the MBC worked out at 0.5 µg/mL (≈ 0.968 µM). Besides, in series [3], the protein binding is listed as 95-97%.

Regarding `CC[C@H]1OC(=O)[C@H](C)C(=O)[C@H](C)[C@@H](O[C@@H]2O[C@H](C)C[C@H](N(C)C)[C@H]2O)[C@](C)(OC)C[C@@H](C)C(=O)[C@H](C)[C@H]2N(CCCCn3cnc(-c4cccnc4)c3)C(=O)O[C@]12C` [Telithromycin, telithromycin], in series [2] (10 strains), the “MBC Range” value is 0.015 to 0.25 µg/mL, the “MIC 90%” value is 0.06 µg/mL (≈ 0.0739 µM) and the “MIC Range” value lay within 0.015 to 0.25 µg/mL. Further, the MBC in series [2] (10 strains, read-out: MBC 90%) was 0.06 µg/mL (≈ 0.0739 µM). In series [2] (10 strains of C. trachomatis), the MIC90 amounted to 0.06 µg/mL (≈ 0.0739 µM).

In the case of `C[C@H]1c2cccc(O)c2C(=O)C2=C(O)[C@]3(O)C(=O)C(C(N)=O)=C(O)[C@@H](N(C)C)[C@@H]3[C@@H](O)[C@@H]21` [Doxycycline, doxycycline], in series [2] (10 strains), the “MBC Range” value was in the range of 0.015 to 0.06 µg/mL, the “MIC 90%” value worked out at 0.06 µg/mL (≈ 0.135 µM) and the “MIC Range” value was 0.015 to 0.06 µg/mL. Moreover, the MBC in series [2] (10 strains, read-out: MBC 90%) came out at 0.06 µg/mL (≈ 0.135 µM). Further, the MIC90 in series [2] (10 strains of C. trachomatis) was 0.06 µg/mL (≈ 0.135 µM).

Turning to `CC[C@H]1OC(=O)[C@H](C)[C@@H](O[C@H]2C[C@@](C)(OC)[C@@H](O)[C@H](C)O2)[C@H](C)[C@@H](O[C@@H]2O[C@H](C)C[C@H](N(C)C)[C@H]2O)[C@](C)(O)C[C@@H](C)CN(C)[C@H](C)[C@@H](O)[C@]1(C)O` [Azithromycin, azithromycin], in series [1], the “% by category, R (resistant); resistance rate” value (from here on “% by category, R (resistant)”) was 0.0%. In addition, the MIC50 in series [1] (setting [4]) was found to be 0.25 µg/mL (≈ 0.334 µM). For the same compound, in series [1] (setting [6]), the “Occurrences at MIC 0.06 μg/ml” value is recorded as 1, the “Occurrences at MIC 0.12 μg/ml” value came out at 15, the “Occurrences at MIC 0.25 μg/ml” value worked out at 12 and the “Occurrences at MIC 0.5 μg/ml” value is reported as 5. For the same compound, in series [1] (setting [6]), the “Occurrences at MIC 1 μg/ml” value was 1 and the “Occurrences at MIC 2 μg/ml” value was 1. Moreover, in series [2] (10 strains), the “MBC Range” value was 0.015 to 0.12 µg/mL, the “MIC 90%” value is 0.12 µg/mL (≈ 0.16 µM) and the “MIC Range” value was in the range of 0.015 to 0.12 µg/mL. Also, the MBC in series [2] (10 strains, read-out: MBC 90%) worked out at 0.12 µg/mL (≈ 0.16 µM). This compound returned an MIC90 in series [2] (10 strains of C. trachomatis) of 0.12 µg/mL (≈ 0.16 µM).

With `CN(C)[C@@H]1C(O)=C(C(N)=O)C(=O)[C@@]2(O)C(O)=C3C(=O)c4c(O)cccc4[C@@](C)(O)[C@H]3C[C@@H]12` [Tetracycline, tetracycline], in series [1], the “% by category, R (resistant)” value was determined as 34.3% and the “% by category, S (susceptible)” value is reported as 22.9%. Further, in series [1] (setting [4]), the MIC50 worked out at 1 µg/mL (≈ 2.25 µM). Also, in series [1] (setting [6]), the “Occurrences at MIC 0.12 μg/ml” value stood at 6, the “Occurrences at MIC 0.25 μg/ml” value is given as 2, the “Occurrences at MIC 0.5 μg/ml” value is 8 and the “Occurrences at MIC 1 μg/ml” value came out at 7. In series [1] (setting [6]), the “Occurrences at MIC 2 μg/ml” value was 7, the “Occurrences at MIC 4 μg/ml” value was 1 and the “Occurrences at MIC >4 μg/ml” value was found to be 4.

Turning to `CC(=O)O[C@H]1C[C@@]2(C)[C@@H](C[C@@H](O)[C@H]3[C@@]4(C)CC[C@@H](O)[C@@H](C)[C@@H]4CC[C@@]32C)/C1=C(\CCC=C(C)C)C(=O)[O-].[Na+]` [CEM 102, Sodium fusidate], the MIC in series [2] (strain 7015), in series [2] (strain Ct D), in series [2] (strain Ct E), in series [2] (strain Ct F), in series [2] (strain Ct H) and in series [2] (strain Ct I) was 0.5 µg/mL in each case. Also, the MIC in series [2] (strain Ct J) was 0.5 µg/mL; in series [2] (strain L2), 0.25 µg/mL; in series [2] (strain N18) it was 0.25 µg/mL; in series [2] (strain N19) it was 0.125 µg/mL. Further, the MBC in series [2] (strain 7015, read-out: MBC) was found to be 0.5 µg/mL; in series [2] (strain Ct D, read-out: MBC), 0.5 µg/mL; in series [2] (strain Ct E, read-out: MBC), 0.5 µg/mL; in series [2] (strain Ct F, read-out: MBC) it was 0.5 µg/mL; in series [2] (strain Ct H, read-out: MBC) it was 0.5 µg/mL; in series [2] (strain Ct I, read-out: MBC), 0.5 µg/mL. Moreover, the MBC in series [2] (strain Ct J, read-out: MBC) came out at 0.5 µg/mL; in series [2] (strain L2, read-out: MBC) it was 0.25 µg/mL; in series [2] (strain N18, read-out: MBC) it was 0.25 µg/mL; in series [2] (strain N19, read-out: MBC) it was 0.125 µg/mL; in series [2] (setting [5]) it was 0.5 µg/mL. This compound also came in with an MIC90 in series [2] (10 strains of C. trachomatis) of 0.5 µg/mL.

For `CO/N=C(\C(=O)N[C@@H]1C(=O)N2C(C(=O)O)=C(CSc3nc(=O)c(=O)[nH]n3C)CS[C@H]12)c1csc(N)n1` [Ceftriaxone, ceftriaxone], in series [1], the “% by category, R (resistant)” value came out at 0.0% and the “% by category, S (susceptible)” value is recorded as 100.0/— %. In series [1] (setting [6]), the “Occurrences at MIC 0.015 μg/ml” value is 6, the “Occurrences at MIC 0.03 μg/ml” value is listed as 6, the “Occurrences at MIC 0.06 μg/ml” value was 3 and the “Occurrences at MIC 0.12 μg/ml” value amounted to 2. Moreover, the “Occurrences at MIC ≦0.008 μg/ml” value in series [1] (setting [6]) is on record as 18.

In series [1] (35 N. gonorrhoeae strains), penicillin came in with an MIC50 of 1 µg/mL. In series [1], the “% by category, R (resistant)” value is 45.7% and the “% by category, S (susceptible)” value is given as 22.9%. Moreover, in series [1] (setting [6]), the “Occurrences at MIC 0.015 μg/ml” value was found to be 1, the “Occurrences at MIC 0.03 μg/ml” value is 4, the “Occurrences at MIC 0.06 μg/ml” value is reported as 3 and the “Occurrences at MIC 0.25 μg/ml” value is listed as 2. In series [1] (setting [6]), the “Occurrences at MIC 0.5 μg/ml” value is on record as 4, the “Occurrences at MIC 1 μg/ml” value was 5, the “Occurrences at MIC 2 μg/ml” value is recorded as 6 and the “Occurrences at MIC 4 μg/ml” value is listed as 4. In addition, the “Occurrences at MIC >4 μg/ml” value in series [1] (setting [6]) turned out to be 6.

For the compound `CC[C@H]1OC(=O)[C@H](C)[C@@H](O[C@H]2C[C@@](C)(OC)[C@@H](O)[C@H](C)O2)[C@H](C)[C@@H](O[C@@H]2O[C@H](C)C[C@H](N(C)C)[C@H]2O)[C@](C)(OC)C[C@@H](C)C(=O)[C@H](C)[C@@H](O)[C@]1(C)O` [Clarithromycin, clarithromycin], in series [2] (10 strains), the “MBC Range” value was 0.015 to 0.12 µg/mL, the “MIC 90%” value is 0.06 µg/mL (≈ 0.0802 µM) and the “MIC Range” value lay in the range of 0.015 to 0.12 µg/mL. For the same compound, the MBC in series [2] (10 strains, read-out: MBC 90%) worked out at 0.06 µg/mL (≈ 0.0802 µM). Besides, in series [2] (10 strains of C. trachomatis), the MIC90 came out at 0.06 µg/mL (≈ 0.0802 µM).

For orientation: MIC90 means an inhibitory concentration at the 90% level, which refers to growth in some studies and to a panel of isolates in others. Read a high MIC90 as weaker potency. Broadly, the MIC50 is the lowest concentration that inhibits either 50% of growth or 50% of the strains tested, depending on the study. For orientation: MIC means the least concentration at which growth counts as inhibited. A higher MIC goes with a less susceptible organism.
